Patent US11950611B2, “Highly soluble Rebaudioside D” (PURECIRCLE SDN BHD, priority 2013, dated 2024)

What was measured:
[1] = cited from earlier work
[2] = room temperature, water; cited from earlier work
[3] = Solubility of Rebaudioside D (crystalline vs amorphous) in water; format: physicochemical; conditions: for water solubility: room temperature, g per 100 g solvent
Procedure: Hereinafter, unless specified otherwise the solubility of material is determined in RO (reverse osmosis) water at room temperature. […] The solution was maintained at 50° C. and dried using a YC-015 laboratory spray drier (Shanghai Pilotech Instrument & Equipment Co. Ltd., China) operating at 175° C. inlet and 100° C. outlet temperatures.

C=C1C[C@@]23CC[C@H]4[C@@](C)(CCC[C@@]4(C)C(=O)O[C@@H]4O[C@H](CO)[C@@H](O)[C@H](O)[C@H]4O)[C@@H]2CC[C@]1(O[C@@H]1O[C@H](CO)[C@@H](O)[C@H](O[C@@H]2O[C@H](CO)[C@@H](O)[C@H](O)[C@H]2O)[C@H]1O[C@@H]1O[C@H](CO)[C@@H](O)[C@H](O)[C@H]1O)C3 [Form 1, Rebaudioside A]
Rate of dissolution in H2O at 25° C. (in words) [1]: Very low
Rate of dissolution in H2O at 25° C., amount dissolved in 60 minutes ([1]; in 60 minutes): (<0.2% in 60

C=C1C[C@@]23CC[C@H]4[C@@](C)(CCC[C@@]4(C)C(=O)O[C@@H]4O[C@H](CO)[C@@H](O)[C@H](O)[C@H]4O)[C@@H]2CC[C@]1(O[C@@H]1O[C@H](CO)[C@@H](O)[C@H](O[C@@H]2O[C@H](CO)[C@@H](O)[C@H](O)[C@H]2O)[C@H]1O[C@@H]1O[C@H](CO)[C@@H](O)[C@H](O)[C@H]1O)C3 [Form 2, Rebaudioside A]
Rate of dissolution in H2O at 25° C. (in words) [1]: Intermediate
Rate of dissolution in H2O at 25° C., amount dissolved in 5 minutes [1]: (<30% in 5

C=C1C[C@@]23CC[C@H]4[C@@](C)(CCC[C@@]4(C)C(=O)O[C@@H]4O[C@H](CO)[C@@H](O)[C@H](O)[C@H]4O)[C@@H]2CC[C@]1(O[C@@H]1O[C@H](CO)[C@@H](O)[C@H](O[C@@H]2O[C@H](CO)[C@@H](O)[C@H](O)[C@H]2O)[C@H]1O[C@@H]1O[C@H](CO)[C@@H](O)[C@H](O)[C@H]1O)C3 [Form 3, Rebaudioside A]
Rate of dissolution in H2O at 25° C. (in words) [1]: High
Rate of dissolution in H2O at 25° C., amount dissolved in 5 minutes [1]: (>30% in 5

C=C1C[C@@]23CC[C@H]4[C@@](C)(CCC[C@@]4(C)C(=O)O[C@@H]4O[C@H](CO)[C@@H](O)[C@H](O)[C@H]4O)[C@@H]2CC[C@]1(O[C@@H]1O[C@H](CO)[C@@H](O)[C@H](O[C@@H]2O[C@H](CO)[C@@H](O)[C@H](O)[C@H]2O)[C@H]1O[C@@H]1O[C@H](CO)[C@@H](O)[C@H](O)[C@H]1O)C3 [Form 4, Rebaudioside A]
Rate of dissolution in H2O at 25° C. (in words) [1]: High
Rate of dissolution in H2O at 25° C., amount dissolved in 5 minutes [1]: (>35% in 5

C=C1C[C@@]23CC[C@H]4[C@@](C)(CCC[C@@]4(C)C(=O)O[C@@H]4O[C@H](CO)[C@@H](O)[C@H](O)[C@H]4O)[C@@H]2CC[C@]1(O[C@@H]1O[C@H](CO)[C@@H](O)[C@H](O[C@@H]2O[C@H](CO)[C@@H](O)[C@H](O)[C@H]2O)[C@H]1O[C@@H]1O[C@H](CO)[C@@H](O)[C@H](O)[C@H]1O)C3 [Rebaudioside A]
thermodynamic equilibrium solubility [2]: 0.8%

C=C1C[C@@]23CC[C@H]4[C@@](C)(CCC[C@@]4(C)C(=O)O[C@@H]4O[C@H](CO)[C@@H](O)[C@H](O)[C@H]4O[C@@H]4O[C@H](CO)[C@@H](O)[C@H](O)[C@H]4O)[C@@H]2CC[C@]1(O[C@@H]1O[C@H](CO)[C@@H](O)[C@H](O[C@@H]2O[C@H](CO)[C@@H](O)[C@H](O)[C@H]2O)[C@H]1O[C@@H]1O[C@H](CO)[C@@H](O)[C@H](O)[C@H]1O)C3 [Rebaudioside D]
water solubility when heat is applied ([3]; heated, upon cooling to room temperature crystallizes back out): up to 0.5%
water solubility [3]: 0.05%

C=C1C[C@@]23CC[C@H]4[C@@](C)(CCC[C@@]4(C)C(=O)O[C@@H]4O[C@H](CO)[C@@H](O)[C@H](O)[C@H]4O[C@@H]4O[C@H](CO)[C@@H](O)[C@H](O)[C@H]4O)[C@@H]2CC[C@]1(O[C@@H]1O[C@H](CO)[C@@H](O)[C@H](O[C@@H]2O[C@H](CO)[C@@H](O)[C@H](O)[C@H]2O)[C@H]1O[C@@H]1O[C@H](CO)[C@@H](O)[C@H](O)[C@H]1O)C3 [amorphous Reb D, Rebaudioside D]
water solubility [3]: 0.2%

C=C1C[C@@]23CC[C@H]4[C@@](C)(CCC[C@@]4(C)C(=O)O[C@@H]4O[C@H](CO)[C@@H](O)[C@H](O)[C@H]4O[C@@H]4O[C@H](CO)[C@@H](O)[C@H](O)[C@H]4O)[C@@H]2CC[C@]1(O[C@@H]1O[C@H](CO)[C@@H](O)[C@H](O[C@@H]2O[C@H](CO)[C@@H](O)[C@H](O)[C@H]2O)[C@H]1O[C@@H]1O[C@H](CO)[C@@H](O)[C@H](O)[C@H]1O)C3 [crystalline Rebaudioside D, Rebaudioside D]
water solubility [3]: 0.05%
Solubility, % (in water) 20° C. ([3]; water, 20° C.): 0.05%
Solubility, % (in water) 50° C.* ([3]; water, 50° C., solution crystallized after cooling to room temperature (20° C.)): 0.2%
Solubility, % (in water) 100° C.* ([3]; water, 100° C., solution crystallized after cooling to room temperature (20° C.)): 0.5%
